Several values for one entry are separate records, joined by “and”; a condition that tells them apart may be missing. Identical values can stand only once.
Legend:
[1] = test system: Calu1-KRASY96D cells (G12C/Y96D); experiment: Cell viability assay (CellTiter-Glo), 72 hours, alone or in combination; conditions: for cell viability: Calu1-KRASY96D, in % (unit assumed)
Protocol: (§1) Cells were seeded into 96-well plates at a density of 1,500 cells per well. […] Upon measurement, 10 μL CCK-8 (Yeasen, 40203ES80) mixed with 100 μL serum-free medium was added to each well and incubated for 1 hour at 37°C. Plates were shaken, and optical density values were determined at 450 nm using a microplate reader (BioTek, Synergy Neo2).
Combination index was calculated using Compusyn software version 1.0, and the synergistic effects were determined by the Chou-Talalay method ([51]).
(A and B) Cell viability assays performed with Calu1 cells infected
with retrovirus packaging KRAS (G12C, G12C/G13D or G12C/Y96D).
measured with CellTiter-Glo.

proteasome pathway = experiment: Proteomic profiling, KEGG pathway enrichment; assay type: cell-based, human; conditions: RLY01 10 μM
Colo320 cells = experiment: Cell viability assay (CCK-8); assay type: cell-based; conditions: Homo sapiens, COLO 320; Colo320, Colon; Supplemental Table 4
Protocol: (§2) Cells were seeded into 96-well plates at a density of 1,500 cells per well. Cells were then cultivated at 37°C for different periods (0 hours, 24 hours, 48 hours, 72 hours, 96 hours). Upon measurement, 10 μL CCK-8 (Yeasen, 40203ES80) mixed with 100 μL serum-free medium was added to each well and incubated for 1 hour at 37°C. Plates were shaken, and optical density values were determined at 450 nm using a microplate reader (BioTek, Synergy Neo2).

H226 cells = experiment: Cell viability assay (CCK-8); assay type: cell-based; conditions: Homo sapiens, NCI-H226; H226, Lung; Supplemental Table 4
[2] = test system: RLY01 binding proteins in whole-cell lysates; experiment: Biotin-RLY01 pulldown mass spectrometry
Protocol: Cell lysates were incubated with free biotin (MedChemExpress) or biotin-RLY01 for 3 hours at room temperature with rotation. Subsequently, the prewashed streptavidin agarose beads (Yeasen Biotech) were added to the system as above and incubated 1 hour at room temperature with rotation. The beads were washed 3 times with […] and then were boiled in SDS loading buffer, followed by Western blotting.
LC-MS/MS–based proteomics analysis was conducted in collaboration with Shanghai Applied Protein Technology Co. Ltd. According to the methods described for streptavidin-biotin affinity pull-down assay, biotin-RLY01 was used to pull down target proteins from the whole-cell lysates. SDS-PAGE gels were stained with Silver Staining kits (Beyotime, P0017S). The entire gel was cut into pieces at the target sites (Supplemental Figure 6F, black arrows), which were destained, reduced, and alkylated, followed by trypsin digestion. The digested peptides were extracted, resuspended in 0.1% formic acid, and analyzed by LC-MS/MS on a Q-Exactive mass spectrometer (Thermo Electron). The raw MS data for each sample were combined and searched using MaxQuant 1.6.14 software for identification and quantitation analysis. The minimal scores for peptide and protein were set as 20 and 50, respectively. The FDR was set to 0.01 for analysis.

[3] = test system: REGγ-proteasome substrates (Lats1, IκBε, p21, p16); experiment: Western blot of REGγ-proteasome substrates after RLY01; assay type: cell-based, human
Protocol: Protein extracts were loaded onto SDS polyacrylamide gels. Gels were transferred onto nitrocellulose membranes, and the membranes were blocked for 1 hour. After overnight incubation with primary antibody at 4°C, the membranes were washed and probed with fluorescent IRDye 800 CW goat anti-rabbit IgG (1:10,000), IRDye 800 CW goat anti-mouse (1:10,000), and IRDye 680 RD goat anti-mouse IgG (1:5,000) antibodies (Cell Signaling Technology). The membranes were then imaged with the Odyssey Infrared Imaging System (LI-COR Biosciences). The primary antibodies used were mouse anti–β-actin (MBL, M177-3), rabbit anti-REGγ (Abcam, ab157157), rabbit anti-KRAS (Abcam, ab275876), rabbit anti-NRF2 (Abcam, ab137550), mouse anti-GAPDH (Proteintech, 60004-1-Ig), anti-FLAG tag (Solarbio, K200001M), anti-HA tag (Abcam, ab9110), rabbit anti-α7 (Abcam, ab133502), rabbit anti-LATS1 (Cell Signaling Technology, 3477), rabbit anti-IκBε (Abcam, ab13413), rabbit anti-p16 (Proteintech, 10883-1-AP), mouse anti-p21 (BD Biosciences, 612234), rabbit anti-PARP (Cell Signaling Technology, 9542), and rabbit anti–caspase-3 ([…], 9662).

T24 cells = experiment: Cell viability assay (CCK-8); assay type: cell-based; conditions: Homo sapiens, T-24; T24, Bladder; Supplemental Table 4
Protocol: as §2

α7 subunit = biological target: T1, α7 subunit (Homo sapiens, UniProt P25786+P25788); experiment: Drug affinity responsive target stability (DARTS); assay type: binding; conditions: HEK293T lysate
T1 construct: HEK293T cells at a density of 90% in a 10 cm dish were scraped and lysed; endogenous in cells; host or cells: HEK293T cell lysate
Protocol: After centrifugation for 10 minutes at 12,000g, the supernatant was obtained and was mixed with TNC buffer ([…]). Samples of each group were treated with RLY01 and DMSO for 60 minutes. Samples were then incubated with pronase (Roche, PRON-RO) in different proportions for 5 minutes at 37°C. All portions of each sample were used for Western blot analysis.

[4] = Toxicity in HCT15 xenograft mice (body weight, spleen, serum chemistry, histology);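 note: male nude mice aged 4 to 5 weeks bearing subcutaneous HCT15 tumor xenografts, with a vehicle-treated group as control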
Protocol: Patient-derived xenograft tumor and HCT15 cells were subcutaneously injected into thirty 4- to 5-week-old nude male mice using the same method as above.
Serum was prepared by centrifugation of whole blood to remove clots after incubation at 4°C overnight. Serum urea, creatinine, alanine aminotransferase, and aspartate aminotransferase levels were measured with a VetScan v2 Chemistry Analyzer (Abaxis).

HLF1 cells = experiment: Cell viability assay (CCK-8); assay type: cell-based; conditions: Homo sapiens; HLF1 (Normal cells); 72 hours
Protocol: as §1

H727 cells = experiment: Cell viability assay (CCK-8); assay type: cell-based; conditions: Homo sapiens, NCI-H727; H727, Lung; Supplemental Table 4
Protocol: as §2

MRC5 cells = experiment: Cell viability assay (CCK-8); assay type: cell-based; conditions: Homo sapiens; MRC5 (Normal cells); 72 hours
Protocol: as §1

[5] = protein PSMA7 (α7), sample A_1 (sample groups not given)
[6] = protein PSMA7 (α7), sample A_2 (sample groups not given)
[7] = protein PSMA7 (α7), sample B_1 (sample groups not given)
[8] = protein PSMA7 (α7), sample B_2 (sample groups not given)

## COc1ccc(C2C(C#N)=C(N)Oc3[nH]ncc32)cc1COc1ccc(Cl)cc1 (stereo not shown) [RLY01]
[1]; 0.390625 μM
  cell viability: 109.013 and 124.79 and 101.198
[1]; 0.78125 μM
  cell viability: 114.312 and 121.448
[1]; 1.5625 μM
  cell viability: 115.364 and 91.5058 and 113.66
[1]; 3.125 μM
  cell viability: 104.087 and 113.194
[1]; 6.25 μM
  cell viability: 87.3918 and 78.2319
[1]; 12.5 μM
  cell viability: 88.1108 and 98.7485
[1]; 25 μM
  cell viability: 37.8911 and 40.008
[1]; 50 μM
  cell viability: 16.5224 and 17.0816
[1]; 100 μM
  cell viability: 16.1363 and 16.3893
[1]; Homo sapiens, read-out: cell viability, Calu1-KRASY96D, 0.78125 μM
  viability at 0.78125 µM: 104%
[1]; Homo sapiens, read-out: cell viability, Calu1-KRASY96D, 3.125 μM
  viability at 3.125 µM: 99.3%
[1]; Homo sapiens, read-out: cell viability, Calu1-KRASY96D, 6.25 μM
  viability at 6.25 µM: 71.3%
[1]; Homo sapiens, read-out: cell viability, Calu1-KRASY96D, 12.5 μM
  viability at 12.5 µM: 92.7%
[1]; Homo sapiens, read-out: cell viability, Calu1-KRASY96D, 25 μM
  viability at 25 µM: 43.6%
[1]; Homo sapiens, read-out: cell viability, Calu1-KRASY96D, 50 μM
  viability at 50 µM: 16.3%
[1]; Homo sapiens, read-out: cell viability, Calu1-KRASY96D, 100 μM
  viability at 100 µM: 16.2%
Proteasome pathway
  pathway affected (KEGG enrichment): predominantly affected the proteasome pathway
Colo320 cells
  IC50: 26.4 µM
H226 cells
  IC50: 27.3 µM
[2]
  protein precipitated by biotin-RLY01 (mass spectrometry): effectively precipitated α7
[2]; protein PSMA7 (α7) in RLY01 pulldown mass spectrum, over all samples
  iBAQ: 23968000
[2]; [5]
  Intensity A_1: 17989000
  iBAQ A_1: 1284900
[2]; [6]
  Intensity A_2: 2996300
  iBAQ A_2: 214020
[2]; [7]
  Intensity B_1: 259310000
  iBAQ B_1: 18522000
[2]; [8]
  Intensity B_2: 55262000
  iBAQ B_2: 3947300
[2]; protein PSMA7 (α7, Proteasome subunit alpha type-7) in RLY01 pulldown mass spectrum, sum over samples
  Intensity: 335560000
[3]; HCT15, SW620, HCT116-WT, SW480 cells, 12 hours
  levels of REGγ-proteasome substrates: increased the levels of REGγ-proteasome substrates in a dose-dependent manner
[3]; HCT116-REGγ-KO (HCT116-KO) cells
  levels of REGγ-proteasome substrates: did not lead to increases in the levels of REGγ-proteasome substrates
[3]; HCT116 cells
  protein level of p27: did not cause changes in the protein level of p27
T24 cells
  IC50: 9.9 µM
α7 subunit
  protection of α7 from pronase proteolysis: protected and enriched α7 during proteolysis
[4]; HCT15 xenograft mice, any group
  systematic toxicity: no systematic toxicity was observed
[4]; HCT15 xenograft mice, compared with BTZ 0.2 mg/kg
  serum creatinine (safety measurement): much less toxicity
[4]; RLY01 25 mg/kg, day 0, 25 mg/kg
  mice weight: 27.31 and 25.72 and 26.14 and 25.82 and 25.67 and 25.74
[4]; RLY01 25 mg/kg, day 3, 25 mg/kg
  mice weight: 26.9 and 25.8 and 26.8 and 28.5 and 26.1
[4]; RLY01 25 mg/kg, day 6, 25 mg/kg
  mice weight: 28.58 and 24.7 and 26.21 and 27.7 and 25.69 and 26.01
[4]; RLY01 25 mg/kg, day 9, 25 mg/kg
  mice weight: 27.17 and 24.74 and 26.32 and 28.85 and 25.35 and 26.42
[4]; RLY01 25 mg/kg, day 12, 25 mg/kg
  mice weight: 28.22 and 25.82 and 26.69 and 29.06 and 26.89 and 26.88
[4]; RLY01 25 mg/kg, day 15, 25 mg/kg
  mice weight: 26.22 and 25.98 and 27.88 and 29.08 and 27.82 and 27.78
[4]; RLY01 25 mg/kg, day 18, 25 mg/kg
  mice weight: 27.65 and 26.49 and 27.75 and 30 and 27.4 and 28.9
[4]; RLY01 25 mg/kg, day 21, 25 mg/kg
  mice weight: 29.3 and 26.9 and 28.4 and 30 and 27.3 and 28
[4]; RLY01 25 mg/kg, 25 mg/kg
  ALT: 0.8617 and 0.8298 and 0.7979
  AST: 2.7766 and 2.968 and 2.298
  CRE: 0.2362 and 0.2317 and 0.217
  Urea: 0.1755 and 0.2457 and 0.2489
[4]; RLY01 50 mg/kg, day 0, 50 mg/kg
  mice weight: 25.95 and 25.01 and 28.14 and 25.8 and 21.44 and 24.37
[4]; RLY01 50 mg/kg, day 3, 50 mg/kg
  mice weight: 26.7 and 28.6 and 25.8 and 24.8 and 28.3
[4]; RLY01 50 mg/kg, day 6, 50 mg/kg
  mice weight: 24.75 and 27.4 and 25.4 and 27.1 and 25.81 and 27.6
[4]; RLY01 50 mg/kg, day 9, 50 mg/kg
  mice weight: 23.54 and 27.06 and 25.64 and 27.25 and 26.9 and 28.52
[4]; RLY01 50 mg/kg, day 12, 50 mg/kg
  mice weight: 24.25 and 29.06 and 26.09 and 28.12 and 28.56 and 29.05
[4]; RLY01 50 mg/kg, day 15, 50 mg/kg
  mice weight: 24.2 and 28.27 and 26.09 and 27.59 and 27.02 and 29.07
[4]; RLY01 50 mg/kg, day 18, 50 mg/kg
  mice weight: 24.2 and 28.82 and 26.86 and 28.6 and 25.47 and 29.48
[4]; RLY01 50 mg/kg, day 21, 50 mg/kg
  mice weight: 24.9 and 29.3 and 26.7 and 28.1 and 29.2 and 29.7
[4]; RLY01 50 mg/kg, 50 mg/kg
  ALT: 0.9415 and 0.8617 and 1.053
  AST: 2.218 and 2.521 and 2.505
  CRE: 0.1503 and 0.1369 and 0.1715
  Urea: 0.1755 and 0.217 and 0.2505
HLF1 cells
  IC50: 46.1 µM
H727 cells
  IC50: 23.2 µM
MRC5 cells
  IC50: 29.5 µM
